Earlier results in patent US11628197B2, “Methods and compounds for treating effects of COVID-19 disease” (priority 2020, dated 2023).

Legend:
COVID-19 disease = settings: US Veterans Administration hospitals, France, China and Brazil
COVID-19 = settings: study of 243 subjects

Compound: CCN(CC)CCCC(C)Nc1ccnc2cc(Cl)ccc12 (stereo not drawn) [chloroquine]
- Therapeutic effects after clinical testing (COVID-19 disease): failed to produce desired therapeutic effects

Compound: Tocilizumab: humanized monoclonal antibody targeting IL-6 receptors
- Efficacy for preventing intubation or death (COVID-19): failed to show efficacy

Compound: CCN(CCO)CCCC(C)Nc1ccnc2cc(Cl)ccc12 (stereo not drawn) [hydroxycholoroquine]
- Therapeutic effects after clinical testing (COVID-19 disease): failed to produce desired therapeutic effects
